Laboratory results taken from PMC9025269, “Synthesis and Anti-Hepatitis B Activities of 3′-Fluoro-2′-Substituted Apionucleosides” (Molecules, 2022).
Where two headings read alike, the source gives them in different places.

Legend:
HBV [1] = details: racemic compounds; read-out: EC50 HBV in vitro; cited from earlier work
[2] = Cell cytotoxicity against HepG2 cells (CellTiter-Glo, 96 h); format: cell-based, human; details: human
Protocol: (§1) In parallel, cell cytotoxicity (CC50) against HepG2 cells was measured using a luminescent cell viability assay to determine the number of viable cells in the culture based on quantitation of the adenosine triphosphate (ATP) present after a 4-day incubation period. On the first day, HepG2 cells were seeded at 15,000 cells per 100 µL per well with assay media containing DEME (Corning, cat#10-013-CV), 3% FBS (Coning, cat#35-011-CV), 1× penicillin/streptomycin and 1× Non-essential Amino Acid in Biocoat collagen-coated 96-well flat bottom plates. Cells were incubated in a 37 °C, 5% CO2 incubator for 4 h before compound dosing. The compound dilution and dosing procedure were identical to that for the determination of anti-HBV activity. After 96 h incubation, CellTiter-Glo® reagent (Promega, Madison, WI, USA) was added to each well and incubated for 10 min at RT. Luminescence was measured on a Victor X3 multi-label plate reader. Cell viability is normalized to the level observed in the absence of an inhibitor, which was defined as 100%.

[3] = system: VSV-G pseudotyped HIV NL4-3; assay: microbe, parasite or virus in culture; format: cell-based; details: for EC50: Human immunodeficiency virus 1, NL43, CCRF-CEM, 72 h, read-out: HIV EC50
HBV [4] = assay: HBV replication assay with HepG2.117 cells (qPCR of HBV DNA in supernatant); format: cell-based, Hepatitis B virus; details: for EC50: Hepatitis B virus, HepG2.117 cells, 96 h, mean ± SD (n); for anti-HBV activity: cell-based assay
in vitro = details: human
[5] = target: T1, HIV-1 reverse transcriptase (HIV-1 RT) (Human immunodeficiency virus type 1 group M subtype B, UniProt P03366); assay: HIV-1 reverse transcriptase RdDp activity assay; format: biochemical
T1 construct: HIV-1 reverse transcriptase (HIV-1 RT) was purchased from Abcam (cat#ab63979); purchased Abcam ab63979
Description: (§2) HIV-1 reverse transcriptase (HIV-1 RT) was purchased from Abcam (cat#ab63979). Recombinant HBV polymerase (Hepatitis B virus genotype D subtype ayw, full length) was cloned using the baculovirus system, expressed in sf9 cells, and purified with similar strategy and methods described by Lanford et al.. A DNA primer (5′-[…]-3′) was synthesized by IDTDNA and a 358-nt RNA template was synthesized in-house using Megascript T7 transcription kit (ThermoFisher, cat#AM1334). dNTPs were purchased from Thermo Fisher and ^3H-dTTP from Perkin Elmer. Filter plates were purchased from Millipore (cat#MABN0V050) and microscint-20 was purchased from Perkin Elmer (cat#6013621).
The RNA-dependent DNA polymerization (RdDp) activity of HIV-1 RT was measured by the incorporation of radioactively labeled nucleotides by HIV-1 RT into acid-insoluble DNA products from the DNA primer primed RNA template. To test compound inhibition, the reactions were performed at 30 °C for 40 min in a reaction mixture containing reaction buffer (50 mM Tris-Cl, pH 7.5, 100 mM KCl, 12.5 mM MgCl2, 4 mM DTT), 1 nM HIV-1 RT, 0.1 µM DNA primer, 0.02 µM RNA template, 10% DMSO, 0.1 µM dATP, 1 µM dGTP, 0.1 µM dCTP, 0.32 µM ^3H-dTTP, and compounds at various concentrations. The 50 µL reactions were performed in 96-well plates. The reactions were quenched with a 60 µL cold mixture of 20% (w/v) TCA and 0.5 mM ATP and incubated at 4 °C for 1 h. The reactions were loaded onto 96-well filter plates. The filters on plates were washed three times with 10% TCA and once with 70% ethanol on a Millipore plate wash station with vacuum applied. The filters on the plate were air-dried and 40 μL Microscint-20 was added to each well. The acid-precipitated tritiated DNA products retained on the filters were detected by a Trilux MicroBeta scintillation reader (Perkin Elmer).
All data were analyzed with GraphPad Prism. The compound concentration at which the enzyme-catalyzed rate was reduced by 50% (IC50) was calculated by fitting the data to the equation Y = % Min + (% Max − % Min) / (1 + 10^((logIC50-X)*h)), where Y corresponds to the percent inhibition to the enzyme activity, % Min is the residual inhibition activity without compound, % Max is the maximum inhibition of enzyme activity at saturating compound concentration, and X corresponds to the log of compound concentrations, and h is the hillslope.

HBV polymerase = target: T2, HBV polymerase (Hepatitis B virus genotype D subtype ayw, UniProt P03156); assay: HBV polymerase RdDp activity assay; format: biochemical; details: read-out: HBV pol IC50
T2 construct: Recombinant HBV polymerase (Hepatitis B virus genotype D subtype ayw, full length); made in house; host or cells: Sf9 insect cells (baculovirus)
Description: as §2
The RdDp activity of HBV polymerase was measured similarly as described for the HIV-1 RT. To test compound inhibition effect, the reactions were performed at 30 °C for 120 min in a reaction mixture containing reaction buffer (50 mM Tris-Cl, pH 7.5, 100 mM KCl, 12.5 mM MgCl2, 4 mM DTT), 15 µg/mL polymerase, 0.5 µM DNA primer, 0.05 µM RNA template, 10% DMSO, 0.046 µM dATP, 0.057 µM dGTP, 0.017 µM dCTP, 0.32 µM ^3H-dTTP, and compounds at various concentrations.
All data were analyzed with GraphPad Prism. […]

HepG2 cells = assay: Cell cytotoxicity against HepG2 cells (CellTiter-Glo, 96 h); format: cell-based, human; details: at highest tested concentrations; HepG2 and CEM cells (Table 1)
Protocol: as §1

[6] = HepG2 cells, 96 h, read-out: HBV CC50

T2 sequence (P03156 whole entry): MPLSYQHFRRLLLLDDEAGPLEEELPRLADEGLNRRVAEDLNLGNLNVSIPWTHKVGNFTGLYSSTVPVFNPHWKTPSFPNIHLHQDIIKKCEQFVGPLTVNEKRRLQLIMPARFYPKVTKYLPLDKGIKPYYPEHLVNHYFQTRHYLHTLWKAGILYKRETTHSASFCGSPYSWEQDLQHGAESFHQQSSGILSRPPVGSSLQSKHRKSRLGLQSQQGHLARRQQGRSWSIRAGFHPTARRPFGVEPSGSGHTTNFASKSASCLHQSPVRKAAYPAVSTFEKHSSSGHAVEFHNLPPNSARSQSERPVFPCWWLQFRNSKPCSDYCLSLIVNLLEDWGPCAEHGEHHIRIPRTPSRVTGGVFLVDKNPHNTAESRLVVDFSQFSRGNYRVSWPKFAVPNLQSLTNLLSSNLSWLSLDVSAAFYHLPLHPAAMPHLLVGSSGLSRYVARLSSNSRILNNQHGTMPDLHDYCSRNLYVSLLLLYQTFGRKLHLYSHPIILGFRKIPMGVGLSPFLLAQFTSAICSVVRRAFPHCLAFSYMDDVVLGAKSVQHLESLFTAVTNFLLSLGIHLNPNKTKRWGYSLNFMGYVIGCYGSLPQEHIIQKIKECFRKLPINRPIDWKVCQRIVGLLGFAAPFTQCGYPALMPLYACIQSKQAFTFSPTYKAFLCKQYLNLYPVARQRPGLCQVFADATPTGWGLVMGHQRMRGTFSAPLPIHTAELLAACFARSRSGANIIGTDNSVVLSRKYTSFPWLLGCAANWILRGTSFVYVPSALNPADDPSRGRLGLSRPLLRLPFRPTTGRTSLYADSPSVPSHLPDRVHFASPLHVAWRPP

In the case of `Nc1ccn([C@H]2C[C@@](F)(CO)CO2)c(=O)n1` (relative stereo) [Compound 2c], the EC50 (HBV [1]) is given as 11 nM.
For `Nc1nc(=O)n([C@H]2C[C@@](F)(CO)CO2)cc1F` (relative stereo) [Compound 2d], the EC50 (HBV [1]) is given as 800 nM.
For `O=c1[nH]c(=O)n([C@H]2C[C@](F)(CO)CO2)cc1I` (relative stereo) [Compound 3b], the EC50 (HBV [1]) is given as 800 nM.
For `C=C1[C@H](CO)[C@@H](O)C[C@@H]1n1cnc2c(=O)[nH]c(N)nc21` [Compound 1, entecavir, reference compound], the CC50 at 96 h [2] was greater than 100 µM, the EC50 [3] was 1.24 µM and the EC50 (HBV [4]) was 3 ± 2.4 nM.
Work on `C=C1[C@H](COP(=O)(N[C@@H](C)C(=O)OC(C)C)Oc2ccccc2)[C@@H](O)C[C@@H]1n1cnc2c(=O)[nH]c(N)nc21` (some centres unmarked) [Compound 1-PD, reference compound] yielded a CC50 at 96 h [2, 6] greater than 10 µM, an EC50 [3] greater than 20 µM and a CC50 (in vitro) greater than 20 µM. The EC50 (HBV [4]) was 31 ± 20 nM.
`C=C1[C@H](COP(=O)(O)OP(=O)(O)OP(=O)(O)O)[C@@H](O)C[C@@H]1n1cnc2c(=O)[nH]c(N)nc21` [Compound 1-TP, reference compound] gave an IC50 [5] of 320 nM and an IC50 (HBV polymerase) of 14 ± 3 nM.
With `Nc1ncnc2c1ncn2[C@@H]1OC[C@](F)(CO)[C@H]1O` [Compound 4, (2R,3S,4R)-2-(6-Amino-9H-purin-9-yl)-4-fluoro-4-(hydroxymethyl)tetrahydrofuran-3-ol] the CC50 at 96 h [2] was greater than 100 µM, the “cytotoxicity” value (HepG2 cells) was “None of the tested apionucleosides 4 and 5 or apionucleoside prodrugs 24 and 39 showed any cytotoxicity” and the EC50 [3] was greater than 33 µM. For the same compound, the CC50 (in vitro) was greater than 33 µM, the EC50 (HBV [4]) was greater than 100000 nM and the “anti-HBV activity” value (HBV [4]) was “Neither 4 nor its prodrug 24 showed any anti-HBV activity”.
With `Nc1ncnc2c1ncn2[C@@H]1OC[C@](F)(CO)[C@H]1CO` [Compound 5, ((2R,3S,4R)-2-(6-Amino-9H-purin-9-yl)-4-fluorotetrahydrofuran-3,4-diyl)dimethanol] the CC50 at 96 h [2] was greater than 10 µM, the “cytotoxicity” value (HepG2 cells) was “None of the tested apionucleosides 4 and 5 or apionucleoside prodrugs 24 and 39 showed any cytotoxicity” and the EC50 [3] was greater than 33 µM. The CC50 (in vitro) was greater than 33 µM, the EC50 (HBV [4]) was greater than 10000 nM and the “anti-HBV activity” value (HBV [4]) was “did not show any anti-HBV activity”.
`Nc1ncnc2c1ncn2[C@@H]1OC[C@](F)(COP(=O)(O)OP(=O)(O)OP(=O)(O)O)[C@H]1O` [Compound 23, ((3S,4S,5R)-5-(6-Amino-9H-purin-9-yl)-3-fluoro-4-hydroxytetrahydrofuran-3-yl)methyl triphosphate] gave an IC50 [5] of 4200 nM.
With `CC(C)OC(=O)[C@H](C)NP(=O)(OC[C@@]1(F)CO[C@@H](n2cnc3c(N)ncnc32)[C@@H]1O)Oc1ccccc1` (stereo partly drawn) [Compound 24, Isopropyl ((((3S,4S,5R)-5-(6-amino-9H-purin-9-yl)-3-fluoro-4-hydroxytetrahydrofuran-3-yl)methoxy)(phenoxy)phosphoryl)-L-alaninate] the CC50 at 96 h [2, 6] was greater than 10 µM, the “cytotoxicity” value (HepG2 cells) was “None of the tested apionucleosides 4 and 5 or apionucleoside prodrugs 24 and 39 showed any cytotoxicity” and the EC50 [3] was greater than 33 µM. The CC50 (in vitro) was greater than 33 µM, the EC50 (HBV [4]) was greater than 10000 nM and the “anti-HBV activity” value (HBV [4]) was “Neither 4 nor its prodrug 24 showed any anti-HBV activity”.
For `CC(C)OC(=O)[C@H](C)NP(=O)(OC[C@@]1(F)CO[C@@H](n2cnc3c(N)ncnc32)[C@@H]1CO)Oc1ccccc1` (stereo partly drawn) [Compound 39, Isopropyl ((((3S,4S,5R)-5-(6-amino-9H-purin-9-yl)-3-fluoro-4-(hydroxymethyl)tetrahydro-furan-3-yl)methoxy)(phenoxy)phosphoryl)-L-alaninate], the CC50 at 96 h [2, 6] was greater than 10 µM, the “cytotoxicity” value (HepG2 cells) was “None of the tested apionucleosides 4 and 5 or apionucleoside prodrugs 24 and 39 showed any cytotoxicity” and the “anti-HIV activity” value [3] was “showed anti-HIV activity”. For the same compound, the EC50 [3] was 0.3 µM, the CC50 (in vitro) was greater than 33 µM and the EC50 (HBV [4]) was 7.8 ± 3.5 nM. For the same compound, the “anti-HBV activity” value (HBV [4]) was “strong inhibition of HBV”.
